logPow and melting point data for ten compounds are collected here from patent US7709637B2, “5-phenylpyrimidines, their preparation, intermediates for their preparation, and their use for controlling harmful fungi” (BASF SE, priority 2001, dated 2010).

The first data set can be described thus: Lipophilicity parameter logPow by RP-HPLC run time method (OECD guideline). The note with it: C18 stationary phase, methanol/buffer pH 7.4, isocratic. The class given is physicochemical. The protocol:
The lipophilicity parameters logPow (Table I) were determined as specified by OECD directive test guidelines using the RP-HPLC run time method.
To this end, a logk′/logPow correlation curve based on ten reference substances was plotted and validated with the aid of the lipophilicity parameters of eight comparative substances, which had been established by the extraction method.
A commercially available reversed-phase C18 stationary phase was used as stationary phase. Chromatographic separation was carried out with methanol and a buffer solution as mobile phase at pH 7.4 under isocratic conditions.
The retention times of the standards tR were converted in accordance with equation Φ into the capacity factors k′, where t0, as […] of the solvent unretarded on the reversed-phase C18 stationary phase, represents the dead time of the chromatographic system:
The linear correlation of the logk′ values with the logPow values of the standards published in the appendix to the Directive 92/69/EEC yields the correlation curve through linear regression.
The lipophilicity parameters logPow of the analytes were interpolated from the correlation curve of the standards after calculation of the logarithmic capacity logk′.
The validation of the RP-HPLC analytical method described, and of the standards used, is carried out with the aid of eight comparison active compounds, the distribution behavior of which was determined with the aid of the extraction method.
With `CCN(CC)c1nc(-c2ncccn2)nc(Cl)c1-c1c(F)cccc1Cl` [I-9], the logPow entry is listed as “logPow 3.86”.
Take `CC(C)Nc1nc(-c2ncccn2)nc(Cl)c1-c1c(F)cc(F)cc1F` [I-11]: the logPow entry is “logPow 3.15”.
On to `CCN(CC)c1nc(-c2cnccn2)nc(Cl)c1-c1c(F)cccc1Cl` [I-14], for which the logPow entry is reported as “logPow 4.49”.
For `CC(C)Nc1nc(-c2cnccn2)nc(Cl)c1-c1c(F)cc(F)cc1F` [I-18], the logPow result was “logPow 4.7”.
On to `CCN(CC)c1nc(-c2cnccn2)nc(Cl)c1-c1c(F)cc(F)cc1F` [I-20], for which the logPow entry was “logPow 4.41”.
In the case of `CC(C)N(C)c1nc(-c2cnccn2)nc(Cl)c1-c1c(F)cc(F)cc1F` [I-21], the logPow entry is on record as “logPow 4.48”.
Turning to `CC(C)(C)CNc1nc(-c2cnccn2)nc(Cl)c1-c1c(F)cc(F)cc1F` [I-22], the logPow entry was “logPow 4.72”.

Assay in another data set: not given
Conditions: not given
`C[C@H](Nc1nc(-n2cccn2)nc(Cl)c1-c1c(F)cc(F)cc1F)C(F)(F)F` [I-2, (S)-6-Chloro-4-(2,2,2-trifluoro-1-methylethyl)amino-5-(2,4,6-trifluorophenyl)-2-(1-pyrazolyl)pyrimidine]: the melting point – broadly, the temperature, or range, at which the solid turns liquid – was 209 °C.
On the same count and under the same terms, under `C[C@H](Nc1nc(-n2ccnc2)nc(Cl)c1-c1c(F)cc(F)cc1F)C(F)(F)F` [I-3, (S)-6-Chloro-4-(2,2,2-trifluoro-1-methylethyl)amino-5-(2,4,6-trifluorophenyl)-2-(1-imidazolyl)pyrimidine] stands 172 to 173 °C; under `C[C@H](Nc1nc(-n2cncn2)nc(Cl)c1-c1c(F)cc(F)cc1F)C(F)(F)F` [I-4, (S)-6-Chloro-4-(2,2,2-trifluoro-1-methylethyl)amino-5-(2,4,6-trifluorophenyl)-2-(1,2,4-triazol-1-yl)pyrimidine], 176 to 177 °C.
